This is an account of results in US8017554B2, “3-amino-1,2-benzisothiazole compounds for combating animal pest” (BASF SE, priority 2006, dated 2011).

SMILES strings stand for the structures.

In the case of `CCN1C(=N)c2c(OC)cccc2S1(=O)=O` [Compound example 3, 2-Ethyl-4-methoxy-1,1-dioxo-1,2-dihydro-1λ*6*-benzo[d]isothiazol-3-ylideneamine], the melting point lay in the range of 111 to 114 °C.
